± gives the expanded uncertainty stated by the source.
Tests used:
[1] = xn = mol fraction of the nth substance listed; conditions: for surface tension liquid-gas: Pendant drop shape; for mass density: 101 kPa, Liquid
[2] = for surface tension liquid-gas: Pendant drop shape; for mass density: 101 kPa, Liquid

COCCOC [1,2-dimethoxyethane] + Cc1ccc(C)c(C)c1
[1], x1 = 1
Conditions	mass density [kg/m3]	surface tension liquid-gas [mN/m]
298.15 K	861.38 ± 0.35	23.93 ± 0.26
313.15 K	845.31 ± 0.38	22.51 ± 0.25

COCCO [2-methoxyethan-1-ol]
[2]
Conditions	mass density [kg/m3]	surface tension liquid-gas [mN/m]
298.15 K	960.02 ± 0.25	30.88 ± 0.32
313.15 K	946.17 ± 0.26	29.42 ± 0.31

COCCO [2-methoxyethan-1-ol] + Cc1ccc(C)c(C)c1
[1], x1 = 1
Conditions	mass density [kg/m3]	surface tension liquid-gas [mN/m]
298.15 K	960.02 ± 0.25	30.88 ± 0.32
313.15 K	946.17 ± 0.26	29.42 ± 0.31

Cc1cc(C)cc(C)c1 [1,3,5-trimethylbenzene] + COCCO
[1]
Conditions	mass density [kg/m3]	surface tension liquid-gas [mN/m]
298.15 K, x2 = 0	861.05 ± 0.46	28.09 ± 0.31
298.15 K, x2 = 0.0486	862.67 ± 0.45	–
298.15 K, x2 = 0.0993	865.02 ± 0.44	28.19 ± 0.31
298.15 K, x2 = 0.1546	867.91 ± 0.43	–
298.15 K, x2 = 0.2021	870.67 ± 0.43	28.23 ± 0.31
298.15 K, x2 = 0.2469	873.41 ± 0.42	–
298.15 K, x2 = 0.3015	877.06 ± 0.41	28.34 ± 0.31
298.15 K, x2 = 0.3469	880.3 ± 0.4	–
298.15 K, x2 = 0.4011	884.41 ± 0.39	28.51 ± 0.31
298.15 K, x2 = 0.45	888.41 ± 0.38	–
298.15 K, x2 = 0.501	892.85 ± 0.37	28.73 ± 0.31
298.15 K, x2 = 0.5508	897.5 ± 0.36	–
298.15 K, x2 = 0.6004	902.45 ± 0.35	29.03 ± 0.31
298.15 K, x2 = 0.6509	907.91 ± 0.34	–
298.15 K, x2 = 0.7003	913.59 ± 0.33	29.35 ± 0.31
298.15 K, x2 = 0.7483	919.54 ± 0.32	–
298.15 K, x2 = 0.8008	926.64 ± 0.3	29.72 ± 0.31
298.15 K, x2 = 0.8501	933.84 ± 0.29	–
298.15 K, x2 = 0.9001	941.83 ± 0.28	30.2 ± 0.32
298.15 K, x2 = 0.9502	950.56 ± 0.27	–
313.15 K, x2 = 0	848.74 ± 0.47	26.82 ± 0.3
313.15 K, x2 = 0.0518	850.28 ± 0.46	–
313.15 K, x2 = 0.0979	852.21 ± 0.46	26.93 ± 0.3
313.15 K, x2 = 0.1489	854.71 ± 0.45	–
313.15 K, x2 = 0.198	857.38 ± 0.44	26.91 ± 0.3
313.15 K, x2 = 0.2497	860.47 ± 0.43	–
313.15 K, x2 = 0.3009	863.78 ± 0.42	26.97 ± 0.3
313.15 K, x2 = 0.349	867.13 ± 0.41	–
313.15 K, x2 = 0.3988	870.82 ± 0.41	27.02 ± 0.3
313.15 K, x2 = 0.4527	875.14 ± 0.4	–
313.15 K, x2 = 0.5005	879.25 ± 0.39	27.13 ± 0.3
313.15 K, x2 = 0.5497	883.79 ± 0.38	–
313.15 K, x2 = 0.6003	888.79 ± 0.37	27.36 ± 0.3
313.15 K, x2 = 0.6491	893.96 ± 0.36	–
313.15 K, x2 = 0.6995	899.77 ± 0.34	27.67 ± 0.3
313.15 K, x2 = 0.7498	906.04 ± 0.33	–
313.15 K, x2 = 0.8001	912.79 ± 0.32	28.01 ± 0.3
313.15 K, x2 = 0.8374	918.17 ± 0.31	–
313.15 K, x2 = 0.9006	928.15 ± 0.29	28.55 ± 0.3
313.15 K, x2 = 0.9491	936.64 ± 0.28	–

Cc1cc(C)cc(C)c1 [1,3,5-trimethylbenzene] + COCCOC
[1], x2 = 0
Conditions	mass density [kg/m3]	surface tension liquid-gas [mN/m]
298.15 K	861.05 ± 0.46	28.09 ± 0.31
313.15 K	848.74 ± 0.47	26.82 ± 0.3

Cc1ccc(C)c(C)c1 [1,2,4-trimethylbenzene] + COCCO
[1]
Conditions	mass density [kg/m3]	surface tension liquid-gas [mN/m]
298.15 K, x2 = 0	871.65 ± 0.48	29.29 ± 0.33
298.15 K, x2 = 0.0507	873.14 ± 0.47	–
298.15 K, x2 = 0.0976	875.08 ± 0.46	29.36 ± 0.32
298.15 K, x2 = 0.154	877.75 ± 0.45	–
298.15 K, x2 = 0.2031	880.31 ± 0.44	29.36 ± 0.32
298.15 K, x2 = 0.2556	883.31 ± 0.43	–
298.15 K, x2 = 0.3021	886.13 ± 0.42	29.35 ± 0.32
298.15 K, x2 = 0.3482	889.1 ± 0.41	–
298.15 K, x2 = 0.3999	892.67 ± 0.4	29.44 ± 0.32
298.15 K, x2 = 0.453	896.6 ± 0.39	–
298.15 K, x2 = 0.5015	900.39 ± 0.38	29.57 ± 0.32
298.15 K, x2 = 0.5513	904.61 ± 0.37	–
298.15 K, x2 = 0.6035	909.35 ± 0.35	29.78 ± 0.32
298.15 K, x2 = 0.6526	914.1 ± 0.34	–
298.15 K, x2 = 0.7033	919.38 ± 0.33	30.03 ± 0.32
298.15 K, x2 = 0.7534	924.98 ± 0.32	–
298.15 K, x2 = 0.7974	930.26 ± 0.31	30.34 ± 0.32
298.15 K, x2 = 0.8455	936.54 ± 0.29	–
298.15 K, x2 = 0.9014	944.31 ± 0.28	30.61 ± 0.32
298.15 K, x2 = 0.9507	951.9 ± 0.27	–
313.15 K, x2 = 0	859.54 ± 0.49	27.67 ± 0.31
313.15 K, x2 = 0.0494	860.68 ± 0.48	–
313.15 K, x2 = 0.1019	862.75 ± 0.47	27.78 ± 0.31
313.15 K, x2 = 0.15	864.92 ± 0.46	–
313.15 K, x2 = 0.2002	867.4 ± 0.45	27.72 ± 0.31
313.15 K, x2 = 0.2486	869.95 ± 0.44	–
313.15 K, x2 = 0.3004	873 ± 0.43	27.72 ± 0.31
313.15 K, x2 = 0.3507	876.1 ± 0.42	–
313.15 K, x2 = 0.4007	879.45 ± 0.41	27.79 ± 0.3
313.15 K, x2 = 0.4502	883.02 ± 0.4	–
313.15 K, x2 = 0.4991	886.8 ± 0.39	27.84 ± 0.3
313.15 K, x2 = 0.5513	891.2 ± 0.38	–
313.15 K, x2 = 0.6006	895.56 ± 0.37	28.03 ± 0.3
313.15 K, x2 = 0.653	900.55 ± 0.36	–
313.15 K, x2 = 0.7002	905.44 ± 0.35	28.29 ± 0.3
313.15 K, x2 = 0.7504	910.91 ± 0.33	–
313.15 K, x2 = 0.7999	916.79 ± 0.32	28.59 ± 0.3
313.15 K, x2 = 0.8496	923.25 ± 0.31	–
313.15 K, x2 = 0.9007	930.3 ± 0.29	28.96 ± 0.31
313.15 K, x2 = 0.9504	937.74 ± 0.28	–

From the NIST ThermoML archive (doi:10.1021/je050484k)
